Experimental data published in patent US9622495B2, “Methods to decontaminate cereal grains with chlorine dioxide” (Diversey, Inc., priority 2011, dated 2017).
“And” between values parts separate entries of the source, which are not always exact repeats. Identical values can stand only once.

Columns and labels:
Fusarium [1] = experiment: Treatment of barley artificially contaminated with Fusarium with chlorine dioxide solutions (test tube, plate count); format: cell-based
Method: The performance of chlorine dioxide was investigated to reduce initial Fusarium load on barley. Prior to treatment with chlorine dioxide, barley samples were artificially contaminated with cells of Fusarium by spraying and drying.
Methods. Chlorine dioxide solutions were generated using Diversey's ClearKlens Bi-Spore Set (Base VH26 and Activator VH 26). Fresh stock solutions were prepared following product use instructions. Concentrations of chlorine dioxide in stock and use solutions were determined with a Dr. Lange test-kit (LCK 310/343) and photometric DR 2800 device. Chlorine dioxide use solutions were prepared diluting the Bi-Spore stock solution with aid of CEN hard water diluent (300 mg/kg CaCO3). The neutralizing solution was based on sodium thiosulfate (5 g/L in ¼ strength Ringer solution). Experiments were carried out at ambient temperature and no soil on the basis of EN 1276. Chlorine dioxide use solutions for testing were determined to be 1 ppm and 10 ppm.
Test runs were conducted as follows. In a test tube, chlorine dioxide solution (10 ml) was added to barley (1 g) and the start time of the experiment was recorded. Barley and chlorine dioxide were mixed by vortexing for 10 seconds and then allowed to react for one hour. After treating the barley with chlorine dioxide solution for one hour, the solution was decanted. Shortly thereafter, a subsequent treatment for either 60 or 300 min with a fresh solution containing either 1 ppm ClO2 or 10 ppm ClO2 was performed. After completion of the second treatment, a portion of the mixture (1 mL) was pipetted into 9 ml of neutralizer and mixed. After 5 minutes reaction time, 1 mL of the neutralized solution was added to 9 mL Ringer diluent. A dilution series was prepared up to 1:10,000. From each dilution step, 1 mL (in duplicate) was plated on potato dextrose agar. Plates were incubated at 30° C. for 62 hours. Grown colonies on plates were counted and expressed at CFU per gram barley. A control experiment using Ringer solution instead of chlorine dioxide was performed following the same procedure.

[2] = Chlorine dioxide concentration in the steeping solution during steeping; format: physicochemical; details: for ClO2 concentration in the steeping solution: Example 2, second steeping
Method: (§1) The second steeping was performed using an aqueous solution of chlorine dioxide. The aqueous solution was made of Diversey Bi-Spore as described in Example 1. The chlorine dioxide steeping solution was prepared from stock by diluting with town tap water. The chlorine dioxide concentration of the steeping solution was determined to be 12 ppm.
(§2) Four boxes with 0.5 kg barley each were placed into a plastic container, which then was filled with 11 L of above mentioned chlorine dioxide steeping solution. The plastic container was transferred into the steeping/germination chamber and left for another 4 hour steeping period. The chlorine dioxide concentration was periodically monitored using Dr. Lange test-kits (LCK 310/343) and DR 2800 device. (Parallel) Barley samples were taken to determine residual cell load of Fusarium after the chlorine dioxide steeping.
(§3) A comparison test with a batch of barley treated with chlorine dioxide in second steeping versus a control using tap water only was carried out following the procedure described in Example 2. The chlorine dioxide in the second steeping solution was determined as initial 11 ppm and dropped to 8 ppm at the end of steeping (4 hour in total, data not shown). The effect on reduction of Fusarium counts were determined.

Fusarium [3] = experiment: Fusarium counts on barley, chlorine dioxide in second steeping, pilot steeping chamber (Example 2); format: cell-based
Fusarium [4] = experiment: Fusarium counts on barley, chlorine dioxide in second steeping versus tap water blank (Example 3); format: cell-based
Method: (§4) Test protocol. Harvested barley from a high load Fusarium batch was provided by Czech Malt and Brew Institute. A starting probe (parallel) was taken to determine initial cell load on barley with Fusarium. Barley (1 g) was whirled in Ringer-solution (10 ml) to detach cells. After thorough whirling ten-fold dilutions steps in sterile Ringer-solution were prepared. 1 ml sample in parallel from dilution steps 10^−4, 10^−5 and 10^−6 were poured with sterile potato agar medium. Chlorine dioxide treated barley was prior to dilution series once washed with Ringer-solution to remove residual Chlorine dioxide. Plates were transferred into a temperature-controlled (30° C.) incubation box and grown for 3-5 days until colony formation was observed. Colonies were counted and calculated to CFU/g. Boxes with barley were placed into a steeping/germination box. The chamber was filled with town tap water for the first steeping and to remove dust and dirt. With help of Dulcotest DT1 photometer (Prominent), the free chlorine in tap water was determined to be 0.17 ppm. The first steeping was performed for 5 hours at about 14.5° C. During this time the water content in exposed barley increased up to 31.8%. After the first steeping residual water was drained. A second (parallel) barley sample was taken to determine the Fusarium load. The steeped barley was then exposed to air until next morning (approximately 16 hours), and a third (parallel) barley sample was taken to determine Fusarium load.
as §3

[5] = system: Fusarium mycotoxins (deoxynivalenol, zearalenon) and deoxynivalenol-3-glucoside; experiment: Mycotoxin content of barley by LC-MS/MS
Method: The barley was also analyzed for representative mycotoxin content as follows. The high-performance liquid chromatography with mass detection (LC-MS/MS) was used for the determination of the selected Fusarium mycotoxins (deoxynivalenol, zearalenon) and deoxynivalenol-3-glucoside in brewing raw materials. After extraction, the homogenized samples were filtered and purified on the SPE column or immunoaffinity column. Subsequently, they were concentrated using a vacuum evaporator, transferred to aqueous methanol and analyzed with the LC-MS/MS.

Fusarium [6] = experiment: Fusarium counts on barley, chlorine dioxide in second steeping, pilot steeping chamber (Example 2); format: cell-based; remark: listed apart in the source
Method: as §4, §1, §2
After second steeping with chlorine dioxide, the boxes were exposed to air in the closed chamber for another 20 hour period. The water level was determined to 38.1% and then adjusted to final 45.5% after a third steeping with tap water for a period of 2.5 hours. A final parallel barley sample was taken to determine residual cell load with Fusarium prior to germination. Treated barley then was further processed according to a quality parameter protocol of the Malting Institute.

Fusarium [7] = experiment: Industrial-scale treatment of barley with chlorine dioxide (about 10 ppm) in second steeping, Fusarium counts; format: cell-based; details: in words
Method: Two independent comparison tests with batches of barley treated with chlorine dioxide in a second steeping, versus control steepings using tap water only, were carried out at industrial scale at an industrial malting site following the procedure described in Example 2. Each batch included about 56 m^3 of barley, the ratio of aqueous chlorine dioxide to barley was about 1:1, and chlorine dioxide (about 10 ppm) was added during second steeping. There was no further dosage of ClO2 during the subsequent germination phase. The effect on reduction of Fusarium counts at industrial-scale were determined at distinct phases: after a first air break, after the second steeping, and during the green malt stage (after barley germination).

Fusarium [8] = experiment: Industrial-scale spraying of barley with aqueous chlorine dioxide (20 ppm) during germination, Fusarium counts; format: cell-based; details: for Log N Fusarium counts: sprayed with aqueous ClO2 (20 ppm) during germination, samples 11B, 12B
Method: Comparison tests were conducted with two batches of barley at the same industrial malting site of Example 5, to determine the effect of ClO2 upon Fusarium counts where the barley is sprayed with aqueous ClO2 (20 ppm) during germination. Both batches were treated with tap water during the steeping stage. Batches 11A and 12A were also sprayed with tap water during germination, whereas batches 11B and 12B were sprayed with aqueous ClO2 (20 ppm) during germination. Each batch of barley weighed approximately 56 metric tons when dry and absorbed approximately 40-50% water by weight during the steeping and germination steps. For example, the barley typically absorbed about 41-42% water during steeping. During germination water content in the barley further increased to about 45-46%. During germination, the steeped batch of barley was sprayed with about 8.8 m^3 aqueous chlorine dioxide (20 ppm) solution (i.e., about 0.15 m^3 aqueous chlorine dioxide solution per metric ton of dry grain).

[9] = 10 ppm + 1 ppm ClO2, contact time 60 min + 60 min
[10] = 10 ppm + 1 ppm ClO2, contact time 60 min + 300 min
[11] = 10 ppm + 10 ppm (2nd steep) ClO2, contact time 60 min + 60 min
[12] = 10 ppm + 10 ppm (2nd steep) ClO2, contact time 60 min + 300 min
[13] = ClO2-treated batch, after third steeping with tap water
[14] = ClO2-treated batch, after third steeping with tap water, second sample
[15] = after second steeping with ClO2 (4 hours), 12 ppm
[16] = after second steeping with ClO2 (4 hours), 12 ppm, second sample
[17] = after 2nd steeping with ClO2 (4 hours)
[18] = Bojos barley after steeping with chlorine dioxide
[19] = second steeping step with chlorine dioxide

[O][Cl+][O-] [ClO2, chlorine dioxide]
CFU/g after treatment (Fusarium [1]; [9]): 3.3 × 10^6 CFU/g | R (log batch control − log batch ClO2), reduction in viability (Fusarium [1]; [9]): 1.06 | CFU/g after treatment (Fusarium [1]; [10]): 1.3 × 10^7 CFU/g | R (log batch control − log batch ClO2), reduction in viability (Fusarium [1]; [10]): 0.47 | CFU/g after treatment (Fusarium [1]; [11]): 1.1 × 10^4 CFU/g | R (log batch control − log batch ClO2), reduction in viability (Fusarium [1]; [11]): 3.58 | CFU/g after treatment (Fusarium [1]; [12]): 5 × 10^3 CFU/g | R (log batch control − log batch ClO2), reduction in viability (Fusarium [1]; [12]): 3.88 | Fusarium counts on barley compared to a control without chlorine dioxide (Fusarium [1]; Example 1, in words): clear reduction | ClO2 concentration in the steeping solution ([2]; time 0 min): 12.2 mg/L | ClO2 concentration in the steeping solution ([2]; time 80 min): 11.8 mg/L | ClO2 concentration in the steeping solution ([2]; time 140 min): 7.4 mg/L | ClO2 concentration in the steeping solution ([2]; time 190 min): 9.5 mg/L | ClO2 concentration in the steeping solution ([2]; time 240 min): 6.4 mg/L | Chlorine dioxide in the second steeping solution, end of steeping ([2]; Example 3, end of steeping (4 hour in total)): 8 ppm | Chlorine dioxide in the second steeping solution, initial ([2]; Example 3, start of steeping): 11 ppm | Fusarium counts, Mean value (CFU/grain) (Fusarium [3]; [13]): 1.98 × 10^4 CFU/grain | Fusarium counts, Sample 1 (CFU/grain) (Fusarium [3]; [13]): 1.90 × 10^4 CFU/grain | Fusarium counts, Sample 1 (CFU/grain) (Fusarium [3]; [14]): 2.06 × 10^4 CFU/grain | Fusarium counts, Mean value (CFU/grain) (Fusarium [3]; [15]): 3.69 × 10^3 CFU/grain | Fusarium counts, Sample 1 (CFU/grain) (Fusarium [3]; [15]): 3.74 × 10^3 CFU/grain | Fusarium counts, Sample 1 (CFU/grain) (Fusarium [3]; [16]): 3.64 × 10^3 CFU/grain | % reduction vs. untreated control (Fusarium [4]; after 2nd aeration (20 hours)): 93.09% | Fusarium counts, treated with ClO2, mean value (CFU/g) (Fusarium [4]; after 2nd aeration (20 hours)): 4.41 × 10^3 CFU/g | Fusarium counts, treated with ClO2, sample 1 (CFU/g) (Fusarium [4]; after 2nd aeration (20 hours)): 4.69 × 10^3 CFU/g | Fusarium counts, treated with ClO2, sample 2 (CFU/g) (Fusarium [4]; after 2nd aeration (20 hours)): 4.13 × 10^3 CFU/g | log reduction vs. untreated control (Fusarium [4]; after 2nd aeration (20 hours)): 1.17 | % reduction vs. untreated control (Fusarium [4]; [17]): 93.44% | Fusarium counts, treated with ClO2, mean value (CFU/g) (Fusarium [4]; [17]): 4.56 × 10^3 CFU/g | Fusarium counts, treated with ClO2, sample 1 (CFU/g) (Fusarium [4]; [17]): 4.37 × 10^3 CFU/g | Fusarium counts, treated with ClO2, sample 2 (CFU/g) (Fusarium [4]; [17]): 4.75 × 10^3 CFU/g | log reduction vs. untreated control (Fusarium [4]; [17]): 1.18 | % reduction vs. untreated control (Fusarium [4]; after 3rd steeping): 92.59% | Fusarium counts, treated with ClO2, mean value (CFU/g) (Fusarium [4]; after 3rd steeping): 3.14 × 10^3 CFU/g | Fusarium counts, treated with ClO2, sample 1 (CFU/g) (Fusarium [4]; after 3rd steeping): 3.12 × 10^3 CFU/g | Fusarium counts, treated with ClO2, sample 2 (CFU/g) (Fusarium [4]; after 3rd steeping): 3.15 × 10^3 CFU/g | log reduction vs. untreated control (Fusarium [4]; after 3rd steeping): 1.13 | Fusarium counts compared to the control steeped with tap water only (Fusarium [4]; chlorine dioxide in second steeping, in words): significantly lower | DON concentration on barley [5, 18]: 450.4 µg/kg | DON_3_Glc concentration on barley [5, 18]: 751 µg/kg | ZON concentration on barley [5, 18]: 12.1 µg/kg | DON ([5]; Bojos barley steeped with chlorine dioxide, Table 7): 450.4 µg/kg | Mycotoxin concentration of DON and DON_3_Glc on barley compared to initial load of untreated barley or barley steeped with water only ([5]; in words): significantly lower | ZON level compared to tap water only ([5]; in words): significantly less | Level of ZON after steeping compared to initial load ([5]; in words, independently of whether water or chlorine dioxide was used): increased | Fusarium counts, Mean value (CFU/g) (Fusarium [6]; [13]): 2.47 × 10^5 CFU/g | Fusarium counts, Sample 1 (CFU/g) (Fusarium [6]; [13]): 2.47 × 10^5 CFU/g | Fusarium counts, Sample 1 (CFU/g) (Fusarium [6]; [14]): 2.47 × 10^5 CFU/g | Fusarium counts, Mean value (CFU/g) (Fusarium [6]; [15]): 5.16 × 10^4 CFU/g | Fusarium counts, Sample 1 (CFU/g) (Fusarium [6]; [15]): 5.23 × 10^4 CFU/g | Fusarium counts, Sample 1 (CFU/g) (Fusarium [6]; [16]): 5.09 × 10^4 CFU/g | Fusarium in malted barley produced from the treated batch (Fusarium [6]; malted barley, data not shown): free from Fusarium | Reduction of Fusarium numbers on barley (%) (Fusarium [6]; [19]): 94.15% | Reduction of Fusarium numbers on barley (log) (Fusarium [6]; [19]): 1.24 log | Fusarium counts compared to control batches steeped with tap water (Fusarium [7]): significantly lower | Fusarium counts on barley compared to control batch sprayed with tap water (Fusarium [8]; industrial scale, sprayed during germination, in words): significantly lower | Log N Fusarium counts (Fusarium [8]; Day 1): 5.9 and 5.8 | Log N Fusarium counts (Fusarium [8]; Day 2): 5.2 | Log N Fusarium counts (Fusarium [8]; Day 3): 5.2 | Log N Fusarium counts (Fusarium [8]; Day 4): 4.3 | Log N Fusarium counts (Fusarium [8]; Day 5): 4.1 and 4.0
